Assay [1] concerns the target T1, His-tagged human recombinant kinase full-length Akt1 (Homo sapiens, UniProt P31749).
T1 construct: His-tagged human recombinant kinase full-length Akt1; His; purchased Invitrogen PV 3599; host or cells: insect cells
Kind of assay: Akt1 kinase assay (TR-FRET). In kind it is biochemical. As to conditions: 10 μM ATP, 60 min at 22° C., read-out: Akt1, median IC50. On the technique in general: In TR-FRET formats the signal depends on donor and acceptor labels being close together.

For assay [2], the system named is KPL-4 breast cancer cell line. Kind of assay: Tumor cell proliferation assay (CellTiter-Glo). In kind it is cell-based. To be noted: KPL4, 72 h drug exposure. Here is the method: Compounds were tested in a cell-based assay that measures the capacity of the compounds to inhibit tumour cell proliferation following a 72 h drug exposure. Cell viability is determined using CellTiter-Glow® (CTG, Promega, cat #G7571/2/3). The CellTiter-Glo® Luminescent Cell Viability Assay is a homogeneous method to determine the number of viable cells in culture. Detection is based on using the luciferase reaction to measure the amount of ATP from viable cells. The amount of ATP in cells correlates with cell viability. Within minutes after a loss of membrane integrity, cells lose the ability to synthesize ATP, and endogenous ATPases destroy any remaining ATP; thus the levels of ATP fall precipitously.
Cells were plated at 3000-5000 cells/well (depending on the cell lines) in 90 μL growth medium on MTPs (Corning; #3603, black plate, clear flat bottom). For each cell line assayed, cells were plated onto a separate plate for determination of […] at t=0 hour and t=72 hour time points. Following overnight incubation at 37° C., chemiluminescence values for the t=0 samples were determined after adding 10 μl medium and 100 μl CTG solution according to manufacture protocol. Plates for the t=72 hour time points were treated with compounds diluted into growth medium at ten times final concentration added in 10 μL to the cell culture plate. Cells were then incubated for 72 hours at 37° C. Chemiluminescence values for the t=72 hour samples were determined. […] Experiments were controlled using a reference compound as standard.
(In ATP-based viability assays light output follows the ATP content of the culture.)

7 compounds from patent publication US20130184273A1, “BICYCLIC PYRIMIDINES” (Bayer Intellectual Property GmbH, priority 2010, published 2013) can be followed below.

T1 sequence (P31749 whole entry): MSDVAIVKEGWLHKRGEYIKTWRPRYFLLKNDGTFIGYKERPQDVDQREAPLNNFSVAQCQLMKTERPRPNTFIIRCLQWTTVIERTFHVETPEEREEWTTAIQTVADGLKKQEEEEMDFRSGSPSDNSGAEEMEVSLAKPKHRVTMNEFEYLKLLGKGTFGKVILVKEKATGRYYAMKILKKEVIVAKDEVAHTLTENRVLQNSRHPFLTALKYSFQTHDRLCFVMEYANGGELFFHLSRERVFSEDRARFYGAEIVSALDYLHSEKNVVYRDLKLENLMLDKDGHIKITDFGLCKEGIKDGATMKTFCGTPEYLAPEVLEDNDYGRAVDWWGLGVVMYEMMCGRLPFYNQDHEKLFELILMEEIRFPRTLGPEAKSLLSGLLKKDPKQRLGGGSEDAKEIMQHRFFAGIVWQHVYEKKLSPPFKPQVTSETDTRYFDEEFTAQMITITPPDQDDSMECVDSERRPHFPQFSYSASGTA

Turning to `Cc1cn2cc(-c3ccccc3)c(-c3ccc(C4(N)CCC4)cc3)nc2n1` [Example 2-1, 1-[4-(2-Methyl-6-phenyl-imidazo[1,2-a]pyrimidin-7-yl)-phenyl]-cyclobutylamine], the 50% inhibitory concentration (IC50) (in general, the concentration needed to halve the response being measured) in assay [1] stood at 474 nM; in assay [2], 1970 nM.
Turning to `NC(=O)c1cccc(-c2cnc3nc(-c4ccc(C5(N)CCC5)cc4)c(-c4ccccc4)cn23)c1` [Example 6-2, 3-{7-[4-(1-Amino-cyclobutyl)-phenyl]-6-phenyl-imidazo[1,2-a]pyrimidin-3-yl}-benzamide], the IC50 amounted to 824 nM in assay [1] and 10000 nM in assay [2].
Take `Cn1cc(-c2nc3nc(-c4ccc(C5(N)CCC5)cc4)c(-c4ccccc4)cn3n2)cn1` [Example 5-2, 1-{4-[2-(1-methyl-1H-pyrazol-4-yl)-6-phenyl-[1,2,4]triazolo[1,5-a]pyrimidin-5-yl]-phenyl}-cyclobutylamine]: the IC50 in assay [1] was 376 nM; in assay [2], 930 nM.
Regarding `Cc1nc2nc(-c3ccc(C4(N)CCC4)cc3)c(-c3ccccc3)cn2n1` [Example 1-0, 1-[4-(2-methyl-6-phenyl-[1,2,4]triazolo[1,5-a]pyrimidin-5-yl)-phenyl]-cyclobutylamine], the values for the IC50 in assay [1] and in assay [2] were 794 nM and 3220 nM, respectively.
For `CS(=O)(=O)c1ccc(-c2cnc3nc(-c4ccc(C5(N)CCC5)cc4)c(-c4ccccc4)cn23)cc1` [Example 4-0, 1-{4-[3-(4-Methansulfonyl-phenyl)-6-phenyl-imidazo[1,2-a]pyrimidin-7-yl]-phenyl}-cyclobutylamine] the same measures were 329 nM and 1270 nM.
Turning to `NC1(c2ccc(-c3nc4ncc(-c5ccc(F)cc5)n4cc3-c3ccccc3)cc2)CCC1` [Example 6-0, 1-{4-[3-(4-Fluorophenyl)-6-phenyl-imidazo[1,2-a]pyrimidin-7-yl]-phenyl}-cyclobutylamine], the IC50 was 1410 nM in assay [1] and 2540 nM in assay [2].
As for `NC1(c2ccc(-c3nc4ncc(-c5cn[nH]c5)n4cc3-c3ccccc3)cc2)CCC1` [Example 6-3, 1-{4-[6-Phenyl-3-(1H-pyrazol-4-yl)-imidazo[1,2-a]pyrimidin-7-yl]-phenyl}-cyclobutylamine], the results for the half-inhibitory concentration (IC50) in assay [1] and in assay [2] were 235 nM and 5110 nM, respectively.
